Read-outs that look alike come from different tables or passages of the source.
Columns and labels:
[1] = test system: LPS induced IL-23 (p19/p40) in DC cells; assay: IL23-p19 ELISA, dendritic (DC) cells differentiated from human PBMC, LPS stimulated; format: cell-based; conditions: LPS 1 μg/ml, 18 hours, 10 pt
Description: Compound Screening Using DC Cells
Human PBMC cells (400 million) obtained from the vendor were transferred into a T-175 flask containing 15 ml RPMI media (10% FBS) and incubate for 2 hours at 37° C. After 2 hours, the media including floating cells was aspirated out carefully and 12 ml of fresh RPMI media (10% FBS) containing GMCSF (100 ng/ml) and IL4 (20 ng/ml) was added, and the flask was kept in a 37° C. incubator for 7 days.
After 3 days, fresh GMCSF (100 ng/ml) and IL4 (20 ng/ml) were added to the flask and the incubation continued. After 7 days, the fully differentiated cells were harvested by spinning down (1200 rpm/5 min) and aspirating the media. The cells were suspended in fresh RPMI media (10% FBS) containing 50 ng/ml IFNγ (1000 U/ml) and then plated (50K/well in 100 μl) onto a white clear bottom 96 well plate and left in a 37° C. incubator for 24 hours.
After 24 hours incubation, 100 μl of RPMI media was added containing 2× concentrated test compound per well to the above cell-culture media (final concentration becomes 1×) and the plates were pre-incubated for 1 hour at 37° C. before stimulating with LPS.
After 1 hour compound pre-incubation, 10 μl per well of 20× concentrated LPS solution in RPMI media was added to give a final concentration of 1 μg/ml. The mixture was shaken and incubated the plates at 37° C. for an additional 18 hours.
155 μl of the supernatant was harvested from each well carefully (without the tip touching the bottom of the well) and to the remaining 50 μl/well of the cell culture plate was added 50 μl of Cell Titer Glo reagent. The mixture was incubated for 1-2 minutes on a shaker and the plate was read for luminescence intensity to determine the compound cytotoxicity. The cell culture supernatant collected above was used to carry out IL23 ELISA (65 μl—Supernatant) and IL10 ELISA (90 μl—Supernatant) as described below.
Human IL-23 (p19/p40) ELISA Protocol (e-Biosciences)
To 10.5 ml PBS add 50 μl of anti-IL23 (p19) was added capture antibody (2.5 μg/ml). The mixture was mixed well and 100 μl of the coating solution was added to each well of the 96 well white plates from Pierce. The wells were covered and incubated overnight at 4° C.
The anti-IL23 (p19)-antibody-coated plates were washed 2× using TBST (use plate washer) and blocked using 200 μl of 0.5% Casein for 1.5 to 2 hours at room temperature with shaking.
The plates were washed 2× using TBST and the supernatant was transferred (65 μl/well) to the above pre-blocked/IL23(p19)-antibody-coated 96 well plate, and incubated at room temperature for 1.5 hours with shaking.
The plates were washed 4× using TBST (plate washer) and 100 μl/well detection antibody solution prepared from 2 μl of biotin labeled anti-IL-12 (p40/p70) antibody in 11 ml 1% BSA/PBS solution (1-5000 dilution) was added. The plates were incubated for 1 hour with shaking at Room temperature.
Again, the plates were washed 4× with TBST and 100 μl of HRP labeled Streptavidin (R&D Systems) solution (10 μl/10 ml 1% BSA solution) was added, and the plates were incubated at room temperature for another 45 minutes with shaking.
After 45 minutes, the plates were washed with TBST 4× and 100 μl/well Super Signal ELISA Pico Chemiluminescent Substrate from Pierce (3.5 ml A+3.5 ml B+3.5 ml MQ water) was added. The plates were shaken for 1-2 minutes then read on a plate reader. […]

[2] = test system: LPS Induced IL23p19 in THP-1 Cells; assay: LPS Induced IL23p19 in THP-1 Cells (with IFNγ Primed) Assay; format: cell-based, human; conditions: THP-1 cells primed with IFNγ 50 ng/mL, LPS 1 ug/mL, 18 hours, 10 pt, read-out: IL23-p19 ELISA, THP1-IFNγ, LPS, 10 pt EC50
Excerpt: LPS Induced IL23p19 in THP-1 Cells (with IFNγ Primed) Assay
THP-1 Cells (ATCC, Cat #TIB-202), Dimethyl Sulfoxide (DMSO) (Sigma-Aldrich, Cat #D2650), RPMI 1640 (Cellgro, Cat #10-040-CM), Fetal Bovine Serum (Sigma, Cat #F4135), Albumin From Bovine Serum (BSA) (Sigma-Aldrich, Cat #A7906), LPS (Serotype K-235, Sigma, Product Number L 2143), IFNγ (Peprotech, Cat #300-02) Capture antibody: Human IL-23p19 ELISA (e-Bioscience, Cat. #14-7238-85), Detection antibody: Primary Mouse Biotinylated anti-human IL-12(p40/p70) (e-Bioscience, Cat. #13-7129-85), Secondary HRP-conjugated Streptavidin (R&D Systems, Cat #DY998), 1×PBST Washing Buffer (PBS-Tween tablet) (VWR International, Cat #80058-558), ELISA Blocking Buffer (PBS with 1% BSA), ELISA Dilution Buffer (PBS with 1% BSA), 384 Well Flat-Bottom, MaxiSorp Black Immuno Plates (Thermo Scientific, Cat #12-565-346), 384 Well Flat-Bottom, White Tissue Culture Plates (Thermo Scientific, Cat #12-565-343), Super Signal ELISA Pico Chemiluminescent Substrate (Thermo Scientific, Cat #37070), Cell Titer Glo reagent (Promega, Cat #G7573), Positive control, IKK2VI inhibitor (Calbiochem, Cat #401483), AquaMax 4000 plate washer (Molecular Devices), Luminometer, Wallac Victor2 1420 Multilabel Counter.
On day 1, 50K/well THP-1 cells were seeded and primed with IFNγ (50 ng/mL) in 384-well plates for about 18 hours in RPMI media with 10% FBS. On day 2, the compound was serially diluted in DMSO from 5 mM in 3-fold dilutions, and then diluted 1:125 in RPMI media with 10% FBS. 50 μL/well 2× compound was added to 50 μL/well THP-1 cells (with IFNγ primed) in duplicate in 384 well tissue culture plates. The cells were pre-incubated with compound for 1 hour at 37° C., 5% CO2 before addition of 10 μL/well 11×LPS to give a final concentration of 1 ug/mL LPS. Day 3, after stimulation for 18 hours at 37° C., 5% CO2, the assay plate was centrifuged and 70 μL/well supernatant was harvested. IL-23p19 protein in 70 µL/well of supernatant was measured by sandwich ELISA, and 25 μl/well Cell Titer Glo reagent was added to the remaining cells to measure compound toxicity.
Human IL-23p19 Sandwich ELISA:
Maxisorp immuno ELISA plates were pre-coated with 25 μL/well of anti-IL-23p19 capture antibody (2.5 ug/mL) in PBS overnight at room temperature. After washing with 1×PBST, the plates were blocked using 100 μL/well of 1% BSA in PBS for 2 hours at room temperature. The plates were washed three times with 1×PBST and 70 μL/well supernatant were added. The plates were incubated at room temperature for 2 hours with shaking and washed three times with 1×PBST. 25 μL/well of biotin labeled anti-IL-12(p40/p70) detection antibody (100 ng/mL) in PBS with 1% BSA was added and the plates were incubated at room temperature for 2 hours with shaking. After washing three times with 1×PBST, 25 μL/well of streptavidin-HRP (1:200) in PBS with 1% BSA was added and the plates were incubated at room temperature for 20 minutes with shaking. The plates were washed three times with 1×PBST and 25 μL/well of Super Signal ELISA Pico Chemiluminescent Substrate were added. The plates were read with a luminometer, and the chemiluminescence values were entered into Athena (Rigel) for curve fitting, EC50 calculation, and database storage. […]

Compound	EC50 ([1]; Table 1, IFNγ 50 ng/ml) [nM]	EC50 ([2]; Homo sapiens, Table 1) [nM]	EC50 ([1]; Table 2, IFNγ 50 ng/ml) [nM]	EC50 ([2]; Table 1) [nM]	EC50 ([2]; Table 2) [nM]	EC50 ([2]; Table 3) [nM]
CCO[C@H]1CC[C@H](n2cc(NC(=O)c3coc(-c4cn[nH]c4)n3)c(-c3cnccn3)n2)CC1 [Compound I-1, N-(1-((1r,4r)-4-ethoxycyclohexyl)-3-(pyrazin-2-yl)-1H-pyrazol-4-yl)-2-(1H-pyrazol-4-yl)oxazole-4-carboxamide]	33.4	4.8				
O=C(Nc1cn([C@H]2CC[C@H](N3CCOCC3)CC2)nc1-c1ncccn1)c1coc(-c2cn[nH]c2)n1 [Compound I-2, N-(1-((1r,4r)-4-morpholinocyclohexyl)-3-(pyrimidin-2-yl)-1H-pyrazol-4-yl)-2-(1H-pyrazol-4-yl)oxazole-4-carboxamide]	84.2		84.2	34.3	34.3	
CCO[C@H]1CC[C@H](n2cc(NC(=O)c3coc(-c4cn[nH]c4)n3)c(-c3ncccn3)n2)CC1 [Compound I-3, N-(1-((1r,4r)-4-ethoxycyclohexyl)-3-(pyrimidin-2-yl)-1H-pyrazol-4-yl)-2-(1H-pyrazol-4-yl)oxazole-4-carboxamide]	3.3		3.3	8.9	8.9	
O=C(Nc1cn([C@H]2CC[C@H](N3CCOCC3)CC2)nc1-c1cccc(C(F)F)n1)c1coc(-c2cn[nH]c2)n1 [Compound I-4, N-(3-(6-(difluoromethyl)pyridin-2-yl)-1-((1r,4r)-4-morpholinocyclohexyl)-1H-pyrazol-4-yl)-2-(1H-pyrazol-4-yl)oxazole-4-carboxamide]	20.1		20.1	6.3	6.3	
C[C@@H]1CN(C2CCC(n3cc(NC(=O)c4coc(-c5cn[nH]c5)n4)c(-c4cccc(C(F)F)n4)n3)CC2)C[C@H](C)O1 (stereo partly drawn) [Compound I-5, N-(3-(6-(difluoromethyl)pyridin-2-yl)-1-((1R,4r)-4-((2R,6S)-2,6-dimethylmorpholino)cyclohexyl)-1H-pyrazol-4-yl)-2-(1H-pyrazol-4-yl)oxazole-4-carboxamide]	10.2		10.2	12	12	
CCO[C@H]1CC[C@H](n2cc(NC(=O)c3coc(-c4cn[nH]c4)n3)c(-c3ccncn3)n2)CC1 [Compound I-6, N-(1-((1r,4r)-4-ethoxycyclohexyl)-3-(pyrimidin-4-yl)-1H-pyrazol-4-yl)-2-(1H-pyrazol-4-yl)oxazole-4-carboxamide]				19.6	19.6	
O=C(Nc1cn([C@H]2CC[C@H](N3CCOCC3)CC2)nc1-c1nc(C(F)(F)F)ccc1F)c1coc(-c2cn[nH]c2)n1 [Compound I-7, N-(3-(3-fluoro-6-(trifluoromethyl)pyridin-2-yl)-1-((1r,4r)-4-morpholinocyclohexyl)-1H-pyrazol-4-yl)-2-(1H-pyrazol-4-yl)oxazole-4-carboxamide]	75.7		75.7	28	28	
CCOC1CCC(n2cc(NC(=O)c3coc(-c4cnn(COP(=O)(O)O)c4)n3)c(-c3nc(F)ccc3F)n2)CC1 (centres unmarked) [Compound I-8, sodium (4-(4-((3-(3,6-difluoropyridin-2-yl)-1-((1r,4r)-4-ethoxycyclohexyl)-1H-pyrazol-4-yl)carbamoyl)oxazol-2-yl)-1H-pyrazol-1-yl)methyl phosphate]	7640		7640	187	187	
CCOC1CCC(n2ncc(NC(=O)c3coc(-c4cn[nH]c4)n3)c2-c2nc(F)ccc2F)CC1 [Compound I-14, N-(5-(3,6-difluoropyridin-2-yl)-1-((1r,4R)-4-ethoxycyclohexyl)-1H-pyrazol-4-yl)-2-(1H-pyrazol-4-yl)oxazole-4-carboxamide]				9120	9120	
Cn1cc(NC(=O)c2coc(-c3cnn(CC4CC4)c3)n2)c(-c2ccccn2)n1 [Compound I-19, 2-(1-(cyclopropylmethyl)-1H-pyrazol-4-yl)-N-(1-methyl-3-(pyridin-2-yl)-1H-pyrazol-4-yl)oxazole-4-carboxamide]						20300
O=C(Nc1cn([C@H]2CC[C@H](N3CCOCC3)CC2)nc1-c1nc(F)ccc1F)c1coc(-c2cn[nH]c2)n1 [Compound I-37, N-(3-(3,6-difluoropyridin-2-yl)-1-((1r,4r)-4-morpholinocyclohexyl)-1H-pyrazol-4-yl)-2-(1H-pyrazol-4-yl)oxazole-4-carboxamide]		73.3				

— patent publication US11993594B2, “IRAK inhibitors and method for making and using” (Rigel Pharmaceuticals, Inc., priority 2016, dated 2024)
